Patent US12049469B2, “Compound and structural body for detecting hydrogen sulfide” (CANON KABUSHIKI KAISHA, priority 2020, dated 2024)

Columns and labels:
[1] = Fluorescence intensity change of compound solution on addition of sodium sulfide (hydrogen sulfide donor) in phosphate-buffered saline; settings: for ΔF0 (0 mM sodium sulfide), amount of change in fluorescence intensity / ΔF (0.2 mM sodium sulfide), amount of change in fluorescence intensity F2−F1: compound 5 μM in 1× phosphate-buffered saline pH 7.4; for ΔF0 (0 mM sodium sulfide), amount of change in fluorescence intensity: 10 minutes; for ΔF (0.2 mM sodium sulfide), amount of change in fluorescence intensity F2−F1: 10 minutes after addition; for ΔF − ΔF0, difference in amount of change in fluorescence intensity in presence or absence of sodium sulfide: compound 5 μM in PBS pH 7.4, 0.2 mM vs 0 mM sodium sulfide; for Sensitivity: grade based on ΔF−ΔF0, A to C acceptable, D unacceptable
Experimental: The compound 1 was added to 1× phosphate-buffered saline (3 mL, pH 7.4) at a concentration of 5 μM. The fluorescence intensity of the solution was immediately measured with a fluorescence spectrophotometer F-4500 (manufactured by Hitachi High-Technologies Corporation). Sodium sulfide serving as a hydrogen sulfide donor was then added to the solution at 0.2 mM. After standing for 10 minutes, the fluorescence intensity of the solution was measured. The fluorescence intensity before the addition of sodium sulfide was denoted as F1, and the fluorescence intensity 10 minutes after the addition of sodium sulfide was denoted as F2. The amount of change in fluorescence intensity (ΔF) due to the addition of sodium sulfide was calculated using the formula F2−F1. The concentration of sodium sulfide was changed to 0 mM, and the amount of change in fluorescence intensity (ΔF0) of the solution was calculated in the same manner. The difference in the amount of change in fluorescence intensity (ΔF−ΔF0) in the presence or absence of sodium sulfide was calculated.
The evaluation is based on the following criteria in the exemplary embodiments of the present disclosure. A to C are acceptable levels, and D is an unacceptable level.

[2] = Behaviour of detection material in aqueous solution (precipitation, water solubility); assay type: physicochemical
Text: To detect hydrogen sulfide and metabolites in an aqueous specimen, such as a biological sample, the present inventors have examined whether the compound disclosed as a detection material in Non Patent Literature 1 can detect hydrogen sulfide in neutral phosphate-buffered saline.

| SMILES | ΔF0 (0 mM sodium sulfide), amount of change in fluorescence intensity [1] | ΔF (0.2 mM sodium sulfide), amount of change in fluorescence intensity F2−F1 [1] | ΔF − ΔF0, difference in amount of change in fluorescence intensity in presence or absence of sodium sulfide [1] | Sensitivity [1] | Water solubility (comparison) ([2]; compared with o-methyl fluorescein) | Precipitate or aggregate formation in solution ([2]; neutral phosphate-buffered saline) |
| --- | --- | --- | --- | --- | --- | --- |
| CN(C)c1ccc(/N=N/c2ccc(C(=O)NCCCOC(=O)/C(C#N)=C/c3ccccc3C(=O)Oc3cc4c(cc3F)C3(OC(=O)c5ccccc53)c3cc(F)c(O)cc3O4)cc2)cc1 (stereo not drawn) [Compound 6] | 13.3 | 34.0 | 20.7 | C (ΔF−ΔF0 is 15 or more and less than 25) | – | – |
| O=C1OC2(c3ccc(O)cc3Oc3cc(O)ccc32)c2ccccc21 [fluorescein] | – | – | – | – | higher water solubility than o-methyl fluorescein | – |
| COC(=O)/C(C#N)=C/c1ccccc1C(=O)Oc1ccc2c(c1)Oc1cc(OC)ccc1C21OC(=O)c2ccccc21 (stereo not drawn) [Compound 2, reference compound] | −0.4 | 11.4 | 11.8 | D (ΔF−ΔF0 is less than 15) | – | a precipitate or aggregate of the detection material is formed in the solution |
| CN(C)c1ccc(/N=N/c2ccc(C(=O)NCCCOC(=O)/C(C#N)=C/c3ccccc3C(=O)Oc3cc4c(cc3Cl)C3(OC(=O)c5ccccc53)c3cc(Cl)c(O)cc3O4)cc2)cc1 (stereo not drawn) [Compound 4] | 4.9 | 10.3 | 5.4 | D (ΔF−ΔF0 is less than 15) | – | – |
| COCCOCCOCCOCCNC(=S)Nc1ccc2c(c1)C(=O)OC21c2ccc(O)cc2Oc2cc(OC(=O)c3ccccc3/C=C(\C#N)C(=O)OCCCNC(=O)c3ccc(/N=N/c4ccc(N(C)C)cc4)cc3)ccc21 (stereo not drawn) [Compound 5] | 1.2 | 42.3 | 41.1 | A (ΔF−ΔF0 is 40 or more) | – | – |
| CN(C)c1ccc(/N=N/c2ccc(C(=O)NCCCOC(=O)/C(C#N)=C/c3ccccc3C(=O)Oc3ccc4c(c3)Oc3cc(O)ccc3C43OC(=O)c4c(Cl)c(Cl)c(Cl)c(Cl)c43)cc2)cc1 (stereo not drawn) [Compound 7] | 2.2 | 8.8 | 6.5 | D (ΔF−ΔF0 is less than 15) | – | – |
| CN(C)c1ccc(/N=N/c2ccc(C(=O)NCCCOC(=O)/C(C#N)=C/c3ccccc3C(=O)Oc3ccc4c(c3)Oc3cc(O)ccc3C43OC(=O)c4cc(NC(=S)NCC(=O)O)ccc43)cc2)cc1 (stereo not drawn) [Compound 3] | 6.8 | 36.9 | 30.1 | B (ΔF−ΔF0 is 25 or more and less than 40) | – | – |
| CN(C)c1ccc(/N=N/c2ccc(C(=O)NCCCOC(=O)/C(C#N)=C/c3ccccc3C(=O)Oc3ccc4c(c3)Oc3cc(O)ccc3C43OC(=O)c4ccccc43)cc2)cc1 (stereo not drawn) [Compound 1] | 1.1 | 42.8 | 41.7 | A (ΔF−ΔF0 is 40 or more) | – | – |
